These compounds were tested against T1, hCGRP (human calcitonin gene-related peptide) receptor (Homo sapiens, UniProt O60894+Q16602) (assay: Inhibition of cAMP production by CGRP receptor antagonists (HTRF) in SK-N-MC cells). Settings: SK-N-MC cells endogenously expressing hCGRP receptor; human CGRP 0.8 nM as agonist; Kb=IC50/[1+([Agonist]/EC50)]; mean ± SEM.
T1 construct: SK-N-MC neuroblastoma cells (ATCC® HTB-10™) that endogenously express the hCGRP receptor; host or cells: SK-N-MC neuroblastoma cells
T1 sequence (Q16602 23-461): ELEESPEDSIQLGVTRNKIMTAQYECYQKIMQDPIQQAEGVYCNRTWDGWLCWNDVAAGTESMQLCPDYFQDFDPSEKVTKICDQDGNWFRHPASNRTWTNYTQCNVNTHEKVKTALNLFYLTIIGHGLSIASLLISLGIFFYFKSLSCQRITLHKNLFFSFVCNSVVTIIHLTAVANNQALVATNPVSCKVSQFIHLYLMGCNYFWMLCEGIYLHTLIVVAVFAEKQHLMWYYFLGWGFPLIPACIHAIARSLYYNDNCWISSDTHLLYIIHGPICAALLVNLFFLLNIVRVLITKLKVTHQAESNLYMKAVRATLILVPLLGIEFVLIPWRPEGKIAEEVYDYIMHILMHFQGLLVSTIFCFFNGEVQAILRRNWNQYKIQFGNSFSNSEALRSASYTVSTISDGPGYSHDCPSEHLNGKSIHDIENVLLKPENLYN
T1 sequence (O60894 27-148): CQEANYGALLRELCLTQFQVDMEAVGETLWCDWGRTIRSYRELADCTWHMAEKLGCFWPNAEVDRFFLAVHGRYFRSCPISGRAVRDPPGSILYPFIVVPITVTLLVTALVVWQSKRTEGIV
Type: cell-based
Experimental: The hCGRP (human calcitonin gene-related peptide) receptor is functionally coupled to the Gas proteins. Stimulation of hCGRP results in an increased synthesis of intracellular cAMP and can be blocked by the addition of receptor antagonists. Receptor activity is thus a reflection of the amount of cAMP present within cells which can be detected using standard in vitro technology.
Cultured SK-N-MC neuroblastoma cells (ATCC® HTB-10™) that endogenously express the hCGRP receptor are grown in Eagle's Minimum essential medium (HYCLONE™) supplemented with 10% heat-inactivated Fetal bovine serum (FBS; GIBCO®), Non-Essential Amino Acids (GIBCO®), 1 mM sodium pyruvate, 2 mM L-glutamine, 100 U/mL of penicillin, and 10 μg/mL of streptomycin to about 70% confluency. After providing fresh medium, the cells are incubated at 37° C. overnight. On the day of the assay, cells are detached using ACCUTASE® (MP Biomedicals), resuspended in assay buffer [Hank's Balanced Salt Solution/Dulbecco's phosphate-buffered saline with […] each of CaCl2 and MgCl2 mixed 1:2, 3.3 mM 4-(2-hydroxyethyl)-1-piperazineethanesulfonic acid, 0.03% bovine serum albumin, and 0.5 mM 1-methyl-3-isobutylxanthine (as inhibitor of […])], and seeded 3-5K/well into 384-well, poly-D-lysine coated white plates (BD Biosciences).
For dose-response studies, compounds are serially diluted 1:3 in dimethyl sulfoxide and then 1:10 into assay buffer. Human CGRP (0.8 nM; Bachem) as a receptor-specific agonist for the hCGRP receptor is mixed with diluted compound and added to the cells as the challenge stimulant at their EC80 concentrations.
The amount of intracellular cAMP is quantitated using HTRF technology (Cisbio) as per vendor instructions. Briefly, cAMP-d2 conjugate and anti-cAMP-cryptate conjugate in lysis buffer are incubated with the treated cells at RT for 90 min. The HTRF signal is immediately detected using an ENVISION® plate reader (Perkin-Elmer) to calculate the ratio of fluorescence at […]. The raw data are converted to cAMP amount (pmole/well) using a cAMP standard curve generated for each experiment. Relative EC50 values are calculated from the top-bottom range of the concentration response curve using a four-parameter logistic curve fitting program (ACTIVITYBASE® v5.3.1.22 or GENEDATA SCREENER® v12.0.4), and Kb values are estimated as agonist-corrected IC50 values using the equation: Kb=(IC50)/[1+([Agonist]/EC50)]. Estimated Kb values are reported as mean values±SEM, averaged from the number of runs (n).
Following the procedure essentially as described above, the compounds of Examples 1-12 have a Kb measured at human CGRP as shown in Table 3.

Row | Kb | SMILES
1 | 0.375 ± 0.172 nM | Cc1cc(CNC(=O)c2ccc([C@@H](C)[C@]3(C)CC(=O)NC3=O)cc2)cc(C2CC2)n1 [Example 6, N-[(2-cyclopropyl-6-methyl-4-pyridyl)methyl]-4-[(1R)-1-[(3S)-3-methyl-2,5-dioxo-pyrrolidin-3-yl]ethyl]benzamide]
2 | 23.5 ± 0.925 nM | Cc1cc(CNC(=O)c2ccc([C@@H](C)[C@]3(C)CC(=O)NC3=O)cc2)cc(C#N)n1 [Example 4, N-[(2-cyano-6-methyl-4-pyridyl)methyl]-4-[(1R)-1-[(3S)-3-methyl-2,5-dioxo-pyrrolidin-3-yl]ethyl]benzamide]
3 | 0.11 ± 0.011 nM | Cc1cc(CNC(=O)c2ccc([C@@H](C)[C@]3(C)CC(=O)NC3=O)cc2)cc(C2CCC2)n1 [Example 11, N-[(2-cyclobutyl-6-methylpyridin-4-yl)methyl]-4-{(1R)-1-[(3S)-3-methyl-2,5-dioxopyrrolidin-3-yl]ethyl}benzamide]
4 | 0.582 ± 0.228 nM | Cc1cc(CNC(=O)c2ccc([C@@H](C)[C@]3(C)CC(=O)NC3=O)cc2)nc(C2CC2)c1 [Example 7, N-[(6-cyclopropyl-4-methyl-2-pyridyl)methyl]-4-[(1R)-1-[(3S)-3-methyl-2,5-dioxo-pyrrolidin-3-yl]ethyl]benzamide]
5 | 0.546 ± 0.226 nM | Cc1cc(CNC(=O)c2ccc([C@@H](C)[C@]3(C)CC(=O)NC3=O)cc2)cc(C)n1 [Example 1, N-[(2,6-dimethylpyridin-4-yl)methyl]-4-{(1R)-1-[(3S)-3-methyl-2,5-dioxopyrrolidin-3-yl]ethyl}benzamide]
6 | 0.6 ± 0.0431 nM | CCc1cc(CNC(=O)c2ccc([C@@H](C)[C@]3(C)CC(=O)NC3=O)cc2)cc(C)n1 [Example 10, N-[(2-ethyl-6-methylpyridin-4-yl)methyl]-4-{(1R)-1-[(3S)-3-methyl-2,5-dioxopyrrolidin-3-yl]ethyl}benzamide]
7 | 0.295 ± 0.056 nM | Cc1cc(CNC(=O)c2ccc([C@@H](C)[C@]3(C)CC(=O)NC3=O)cc2)cc(C2CCCC2)n1 [Example 12, N-[(2-cyclopentyl-6-methylpyridin-4-yl)methyl]-4-{(1R)-1-[(3S)-3-methyl-2,5-dioxopyrrolidin-3-yl]ethyl}benzamide]

The remaining lines, values behind:

Row | SMILES | Kb
8 | Cc1cc(CNC(=O)c2ccc([C@@H](C)[C@]3(C)CC(=O)NC3=O)cn2)cc(C2CC2)n1 [Example 9, N-[(2-cyclopropyl-6-methyl-4-pyridyl)methyl]-5-[(1R)-1-[(3S)-3-methyl-2,5-dioxo-pyrrolidin-3-yl]ethyl]pyridine-2-carboxamide] | 1.15 ± 0.181 nM
9 | Cc1cc(C)nc(CNC(=O)c2ccc([C@@H](C)[C@]3(C)CC(=O)NC3=O)cc2)c1 [Example 2, N-[(4,6-dimethyl-2-pyridyl)methyl]-4-[(l R)-1-[(3S)-3-methyl-2,5-dioxo-pyrrolidin-3-yl]ethyl]benzamide] | 2.22 ± 1.47 nM
10 | Cc1cc(C#N)nc(CNC(=O)c2ccc([C@@H](C)[C@]3(C)CC(=O)NC3=O)cc2)c1 [Example 3, N-[(6-cyano-4-methyl-2-pyridyl)methyl]-4-[(1R)-1-[(3S)-3-methyl-2,5-dioxo-pyrrolidin-3-yl]ethyl]benzamide] | 1.51 ± 0.14 nM
11 | Cc1cc(CNC(=O)c2ccc([C@@H](C)[C@]3(C)CC(=O)NC3=O)cc2)cc(C(C)C)n1 [Example 5, N-[(2-isopropyl-6-methyl-4-pyridyl)methyl]-4-[(R)-1-[(3S)-3-methyl-2,5-dioxo-pyrrolidin-3-yl]ethyl]benzamide] | 0.718 ± 0.0045 nM
12 | Cc1cc(CNC(=O)c2ccc([C@@H](C)[C@]3(C)CC(=O)NC3=O)cn2)cc(C)n1 [Example 8, N-[(2,6-dimethyl-4-pyridyl)methyl]-5-[(1R)-1-[(3S)-3-methyl-2,5-dioxo-pyrrolidin-3-yl]ethyl]pyridine-2-carboxamide] | 1.25 ± 0.0045 nM

These compounds were tested on CGRP receptor (assay: Capsaicin-induced dermal blood flow (DBF), laser Doppler imaging, in nonhuman primates). Settings: 3 mg/kg orally, 90 min prior to capsaicin; cynomolgus NHP; compared to vehicle; p<0.003.
Type: in vivo
Text: Capsaicin-induced dermal blood flow (DBF) may be used as a target engagement biomarker to assess CGRP receptor activity in nonhuman primates (NHPs). Methods are adapted from earlier published procedures [Hershey et al., Regulatory Peptides, Volume 127, Issue 1-3, pp. 71-77, 2005].
Animal studies may be performed under protocols approved by the Covance Institutional Animal Care and Use Committee. Cynomolgus NHPs may be used given the close homology between NHP and human CGRP receptor. The study population may include healthy, CGRP antagonist naive cynomolgus NHP males weighing ˜3-4 kg.
Cynomolgus NHPs are enrolled in the study based on prescreening for capsaicin responsiveness. […] NHPs are used in a cross over design in which all NHPs received all doses after a two week wash-out period. Total n=10 NHPs per group. […]
Analysis and Statistics: LDI repeat scans are analyzed using Moor software v.5.2 (Moor Instruments, Wilmington, Del.) by region of interest signal analysis, and Microsoft Excel worksheets are used for averaging the signal from the regions of interest at a given time point. […] Analyzed data is entered into Graphpad PRISM® 4.0 for graphing and a repeated measurement mixed-effect model in SAS® 9.1 is used for statistical analysis. Data is expressed as mean+/−SD.

Row | SMILES | group mean inhibition of capsaicin-induced blood flow increase
13 | Cc1cc(CNC(=O)c2ccc([C@@H](C)[C@]3(C)CC(=O)NC3=O)cc2)cc(C)n1 [Example 1, N-[(2,6-dimethylpyridin-4-yl)methyl]-4-{(1R)-1-[(3S)-3-methyl-2,5-dioxopyrrolidin-3-yl]ethyl}benzamide] | 27.4%

Same assay, conditions: 30 mg/kg orally, 90 min prior to capsaicin; cynomolgus NHP; compared to vehicle; p<0.00001

Row | SMILES | group mean inhibition of capsaicin-induced blood flow increase
14 | Cc1cc(CNC(=O)c2ccc([C@@H](C)[C@]3(C)CC(=O)NC3=O)cc2)cc(C)n1 [Example 1, N-[(2,6-dimethylpyridin-4-yl)methyl]-4-{(1R)-1-[(3S)-3-methyl-2,5-dioxopyrrolidin-3-yl]ethyl}benzamide] | 40.6%
